US5840677A, “Boronic acid or borinic acid derivatives as enzyme stabilizers” (Novo Nordisk A/S, priority 1993, dated 1998)
pKi: −log10 of the molar value.

Assays:
Alcalase = molecular target: T1, Alcalase (Bacillus licheniformis, UniProt P00780); experiment: biochemical; details: substrate SAAPFpNA; 0.1 M Tris-HCl pH 8.6; 25° C.; Alcalase 1×10^-10 -3×10^-10 M
T1 construct: purchased Novo Nordisk A/S
T1 sequence (P00780 106-379): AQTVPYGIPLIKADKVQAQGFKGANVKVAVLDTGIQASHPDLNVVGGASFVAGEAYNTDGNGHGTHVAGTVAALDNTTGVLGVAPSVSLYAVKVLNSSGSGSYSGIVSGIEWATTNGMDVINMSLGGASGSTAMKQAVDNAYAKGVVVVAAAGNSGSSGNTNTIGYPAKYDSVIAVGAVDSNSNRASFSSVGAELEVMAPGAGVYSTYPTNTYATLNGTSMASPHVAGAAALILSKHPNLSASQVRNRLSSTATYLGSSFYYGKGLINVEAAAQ
Excerpt: (§1) c) Determination of Ki : The inhibition constant Ki may be determined by using standard methods, for reference see Keller et al, Biochem. Biophys. Res. Com. 176, 1991, pp.401-405; J. Bieth in Bayer-Symposium "Proteinase Inhibitors", pp. 463-469, Springer-Verlag, 1974 and Lone Kierstein Hansen in "Determination of Specific Activities of Selected Detergent Proteases using Protease Activity, Molecular Weights, Kinetic Parameters and Inhibition Kinetics", PhD-report, Novo Nordisk A/S and University of Copenhagen, 1991.
(§2) The inhibition constants Ki, for the inhibition of Alcalase and Savinase respectively, were determined using standard methods under the following conditions:
(§3) Substrate: Succinyl-Alanine-Alanine-Proline-Phenylalanine-para-nitro-anilide=SAAPFpNA(Sigma S-7388).
(§4) Buffer: 0.1 M Tris-HCl pH 8.6; 25° C.
(§5) Enzyme concentration in assay
(§6) The initial rate of substrate hydrolysis was determined at nine substrate concenterations in the range of 0.01 to 2 mM using a Cobas Fara automated spectrophotometer. The kinetic parameters Vmax and Km were determined using ENZFITTER (a non-linear regression data analysis program). kcat was calculated from the equation Vmax =kcat X[Eo ]. The concentration of active enzyme [Eo ] was determined by active site titration using tight-binding protein proteinase inhibitors. The inhibition constant Ki was calculated from plots of Km /kcat as a function of the concentration of inhibitor. The inhibitors were assumed to be 100% pure and the molar concentrations were determined using weighing numbers and molecular weights.

Savinase [1] = molecular target: T2, Savinase (Lederbergia lenta, UniProt P29600); experiment: biochemical; design: species or system Bacillus; details: substrate SAAPFpNA; 0.1 M Tris-HCl pH 8.6; 25° C.; Savinase 1-10^-10 -3×10^-10 M
T2 construct: purchased Novo Nordisk A/S
T2 sequence (P29600 1-269): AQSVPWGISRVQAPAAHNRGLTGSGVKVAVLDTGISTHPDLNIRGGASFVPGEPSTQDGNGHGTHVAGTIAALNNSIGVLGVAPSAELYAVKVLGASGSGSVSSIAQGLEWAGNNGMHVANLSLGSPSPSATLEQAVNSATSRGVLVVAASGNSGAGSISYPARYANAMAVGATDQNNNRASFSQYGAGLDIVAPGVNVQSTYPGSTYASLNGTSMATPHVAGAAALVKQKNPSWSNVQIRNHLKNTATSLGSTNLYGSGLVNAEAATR
Excerpt: as §1, §2, §3, §4, §5, §6

Savinase [2] = molecular target: T2, Savinase; experiment: Storage Stability Test in Liquid Detergent (improvement factor IFI, inhibition of protease); format: biochemical, Bacillus; details: US-type liquid detergent, 1% w/w Savinase + 1% w/w Lipolase, 0, 3, 7 and 14 days at 30° C.
Method: a) Storage Stability Test in Licuid Deterrent: Enzyme(s) and stabilizer are added to a liquid detergent formulation and stored at well defined conditions. The enzyme activity of each enzyme is determined as a function of time, e.g. after 0, 3, 7 and 14 days.
To calculate the inhibition efficiency from the storage stability date a reaction mechanism is proposed.
From these reactions three coupled differential equations are derived describing the deactivation of P, L and PI. The reaction rate constants are derived from storage stability data by the use of a parameter estimation method (Gauss-Newton with the Levenberg modification). The storage stability data give the concentration of (P+PI) and L as a function of time.
Reaction IV is excluded from the system to reduce the number of parameters thereby describing the stability of the inhibited enzyme by only one reaction rate constant (from equation V).
In all experiments there is a large surplus of inhibitor molecules compared to protease molecules, i.e. a constant concentration of inhibitor (corresponding to the added amount of inhibitor) is a reasonable assumption.
An improvement factor is thus derived: [formula] IFI measures the inhibition efficiency given by the inhibition constants KI from reaction III.
Different boronic and borinic acid derivative enzyme stabilizers were also tested in storage stability tests in liquid detergents using the method described previously under the following conditions: […]

subtilisin = details: Keller et al, Biochem. Biophys. Res. Com. 176, 1991; cited from earlier work
proteolytic enzymes = details: prior art; cited from earlier work
[3] = stabilizer 5 mmole/kg, relative to boric acid

| Compound | pKi (Alcalase) | pKi (Savinase [1]) | Improvement factor IFI (Savinase [2]; [3]) | capacity as subtilisin inhibitor (subtilisin) | Improvement factor IFI (Savinase [2]; reference, boric acid 160 mmole/kg) | inhibition of proteolytic enzymes (proteolytic enzymes) |
| --- | --- | --- | --- | --- | --- | --- |
| OB(O)c1cc2ccccc2o1 | 3.00 | 3.10 | – | – | – | – |
| Cc1cc(B(O)O)c(C)s1 [2,5-dimethylthiophene-3-boronic acid] | 2.52 | 2.22 | 7 | – | – | – |
| OB(O)CCC1CCCCC1 [2-cyclohexylethyl] | – | – | – | poor inhibitors | – | – |
| OB(O)c1cc(Cl)cc(Cl)c1 [3,5-dichlorophenylboronic acid] | – | – | – | particularly effective | – | – |
| OB(O)c1sccc1Br [3-Bromothiophene-2-boronic acid] | 2.70 | 2.70 | – | – | – | – |
| COc1ccsc1B(O)O [3-Methoxythiophene-2-boronic acid] | 2.52 | 2.92 | 8 | – | – | – |
| OB(O)CCc1cccc2[nH]c3ccccc3c12 [4-Carbazole ethyl boronic acid] | 3.00 | 2.70 | – | – | – | – |
| Cc1csc(B(O)O)c1 [4-Methylthiophene-2-boronic acid] | 2.74 | 2.52 | 4 | – | – | – |
| COc1ccc(B(O)O)cc1 [4-methoxyphenyl] | – | – | – | very good inhibitors | – | – |
| OB(O)c1ccc(Br)s1 [5-Bromothiophene-2-boronic acid] | 3.40 | 3.70 | 124 | – | – | – |
| OB(O)c1ccc(Cl)s1 [5-Chlorothiophene-2-boronic acid] | 3.52 | 3.70 | 123 | – | – | – |
| OB(O)O [Boric acid, reference compound] | – | – | – | – | 1 | reversibly inhibit proteolytic enzymes |
| OB(O)c1cccs1 [Thiophene-2-boronic acid] | 2.70 | 2.70 | 72 | – | – | – |
| CCCCB(O)O [butyl] | – | – | – | poor inhibitors | – | – |
| CB(O)O [methylboronic acid] | – | – | – | poorest inhibitor | – | – |
| OB(O)c1ccccc1 [phenyl] | – | – | – | very good inhibitors | – | – |
| Picoline-2-boronic acid | 2.52 | 2.40 | – | – | – | – |
| acetamidobenzene boronic acid | – | – | – | – | – | superior inhibitor of proteolytic enzymes |

Further lines, with some results ahead:

| pKi (Alcalase) | pKi (Savinase [1]) | Improvement factor IFI (Savinase [2]; [3]) | Compound | capacity as subtilisin inhibitor (subtilisin) | Improvement factor IFI (Savinase [2]; reference, boric acid 160 mmole/kg) | inhibition of proteolytic enzymes (proteolytic enzymes) |
| --- | --- | --- | --- | --- | --- | --- |
| 2.70 | 2.52 | – | CCc1ccc(B(O)O)o1 [5-Ethylfuran-2-boronic acid] | – | – | – |
| 3.15 | 3.05 | 66 | CCc1ccc(B(O)O)s1 [5-Ethylthiophene-2-boronic acid] | – | – | – |
| 2.70 | 2.52 | – | COc1ccc(B(O)O)o1 [5-Methoxyfuran-2-boronic acid] | – | – | – |
| 2.70 | 3.00 | 14 | COc1ccc(B(O)O)s1 [5-Methoxythiophene-2-boronic acid] | – | – | – |
| 2.70 | 2.52 | 12 | Cc1ccc(B(O)O)s1 [5-Methylthiophene-2-boronic acid] | – | – | – |
| 2.82 | 2.52 | – | CCCc1ccc(B(O)O)s1 [5-n-Propylthiophene-2-boronic acid] | – | – | – |
| – | – | 190 | OB(O)c1cc2ccccc2o1 [Benzofuran-2-boronic acid] | – | – | – |
| 2.96 | 2.82 | 9 | OB(O)c1cccc2oc3ccccc3c12 [Dibenzofuran-1-boronic acid] | – | – | – |
| 3.05 | 2.96 | 19 | OB(O)c1cccc2c1oc1ccccc12 [Dibenzofuran-4-boronic acid] | – | – | – |
| 3.05 | 2.82 | 12 | OB(O)c1cccc2sc3ccccc3c12 [Dibenzothiophene-1-boronic acid] | – | – | – |
| 2.70 | 2.40 | – | OB(c1ccccc1)c1ccccc1 [Diphenylborinic acid (ethanolamine complex)] | – | – | – |
| 2.52 | 2.40 | 13 | OB(O)c1ccco1 [Furan-2-boronic acid] | – | – | – |
| 2.00 | 2.15 | 32 | OB(O)c1ccoc1 [Furan-3-boronic acid] | – | – | – |
| 2.70 | 2.52 | 20 | OB(O)c1cc2ccccc2s1 [Thionaphthrene-1-boronic acid] | – | – | – |
| 2.70 | 2.70 | 63 | OB(O)c1ccsc1 [Thiophene-3-boronic acid] | – | – | – |
